Assay results as given in paper PMC7766124, “Improved Cell Selectivity of Pseudin-2 via Substitution in the Leucine-Zipper Motif: In Vitro and In Vivo Antifungal Activity” (Antibiotics, 2020).
In brackets after ≈: the same amount, converted by molar mass. Like-named read-outs stand apart in the source and are kept apart here. No end group written: not given here.

Tests used:
[1] = tested on: F. oxysporum; type: cell-based, F. oxysporum (KCTC 16909); conditions: 36 h
Source text: (§1) Aspergillus flavus (KCTC 6905), A. fumigatus (KCTC 6145), Fusarium moniliforme (KCTC 6149), F. oxysporum (KCTC 16909), C. albicans (KCTC 7270), C. krusei (CCARM 14017), C. parapsilosis (CCARM 14016), C. tropicalis (KCTC 7221), and T. beigelii (KCTC 7707) were obtained from the Korea Collection for Type Cultures (KCTC) and Culture Collection of Antimicrobial Resistant Microbes (CCARM). Mold and yeast fungi were pre-grown on potato dextrose (PD) and yeast extract peptone dextrose (YPD) agars, respectively.
(§2) Antifungal activity of peptides was performed by microtiter plate assays. Fungal conidia from four-day-old molds were collected using 0.08% Triton X-100 (v/v), and pre-cultivated yeast cells were adjusted to 2 × 10^4 spores/mL in 10 mM sodium phosphate buffer (SP, pH 7.2) or 10 mM 2-(N-morpholino)ethanesulfonic acid (MES) buffer (pH 5.5) supplemented with 20% culture medium, followed by addition to peptide solutions (0.25, 0.5, 1, 1.5, 2, 4, 6, 8, 12, 16, 32, 48, and 64 µM) in 96-well microtiter plates. After incubation for 36 h at 28 °C, the hyphal growth of conidia and the proliferation of yeast cells were observed under a light microscope. All assays were performed in triplicate. The MIC values were defined as the lowest concentration of samples that reduced fungal germination (for mold) or cell proliferation (for yeast) by more than 90% [34].

[2] = tested on: F. moniliforme; type: cell-based, Fusarium moniliforme (KCTC 6149); conditions: 36 h
Source text: as §1, §2

[3] = tested on: mouse erythrocytes; test: Hemolytic assay; type: cell-based; conditions: 64 µM peptide, 8% (v/v) mRBCs, 37 °C, 2 h (method) / 4 h (figure legend)
Experimental: Mouse blood was collected into sodium heparin-coated tubes (BD Vacutainer; BD Diagnostics, Oxford, UK). The mRBCs were obtained by centrifugation (800× g, 10 min) and washing with PBS. The washed mRBCs were added to a final concentration of 8% (v/v) in 64 µM peptide solution, followed by incubation for 2 h at 37 °C. After centrifugation, each tube was digitally recorded.

[4] = tested on: C. albicans; type: cell-based, C. albicans (KCTC 7270); conditions: 36 h
Source text: as §1, §2

[5] = tested on: A. fumigatus; type: cell-based, A. fumigatus (KCTC 6145); conditions: 36 h
Source text: as §1, §2

[6] = tested on: A. flavus; type: cell-based, Aspergillus flavus (KCTC 6905); conditions: 36 h
Source text: as §1, §2

[7] = Calcein leakage from mammalian-mimic artificial vesicles; conditions: mammalian-mimic PC/CH/SM vesicles, 20 μM lipid; peptide/lipid molar ratio 0.1; 100% = 0.03% Triton X-100
Experimental: (§3) The permeability of peptides in calcein-entrapped artificial liposomes was assayed by measuring calcein leakage. The desired mixtures of lipids (PC/PE/PI/ergosterol, 5:4:1:2 and PC/CH/SM, 2:1:1, weight ratio) were dissolved in chloroform at 10 mg/mL, dried in a glass tube under nitrogen, and then lyophilized overnight to remove residual solvent. The dried lipid films were resuspended in 1 mL of dye solution (80 mM calcein, 10 mM HEPES buffer, pH 7.2) at 50 °C and vortexed, followed by freeze-thawing for nine cycles and extrusion with polycarbonate filters (0.2-μm pore-size) using an Avanti Mini-Extruder (Avanti Polar Lipids Inc., Alabaster, AL, USA). Free calcein was removed using PD-10 desalting columns (GE Healthcare Life Science, Seoul, Korea). Calcein-entrapped vesicles of 20 μM lipids were incubated with peptides at concentrations of […], 0.02, 0.05, and 0.1 molar ratio (peptide/lipid) and the fluorescence was assessed at 480 (Ex) and 520 (Em) nm using a microtiter SpectraMax M5 reader (Molecular Devices). Complete (100%) release was achieved by the addition of 0.03% Triton X-100 (v/v).

[8] = tested on: C. tropicalis; type: cell-based, C. tropicalis (KCTC 7221); conditions: 36 h
Source text: as §1, §2

[9] = tested on: C. parapsilosis; type: cell-based, C. parapsilosis (CCARM 14016); conditions: 36 h
Source text: as §1, §2

[10] = tested on: C. tropicalis cells; test: SYTOX Green uptake (membrane permeability); type: cell-based; conditions: SP buffer pH 7.2, 0.5 μM SYTOX Green, peptides 1-64 µM, monitored 30 min
Experimental: C. tropicalis cells pre-grown at 28 °C were washed and suspended (2 × 10^6 cells/mL) in SP buffer (pH 7.2). The cells were pre-incubated with SYTOX Green (final concentration of 0.5 μM) for 15 min in the dark, followed by adding two-fold serial dilutions of peptides at concentrations of 1 to 64 µM. The fluorescence intensity was monitored for 30 min at 485 (Ex) and 520 (Em) nm using a microtiter SpectraMax M5 reader (Molecular Devices, San Jose, CA, USA).

[11] = tested on: C. krusei; type: cell-based, C. krusei (CCARM 14017); conditions: 36 h
Source text: as §1, §2

[12] = Calcein leakage from fungus-mimic artificial vesicles; conditions: fungus-mimic PC/PE/PI/ergosterol vesicles, 20 μM lipid; peptide/lipid molar ratio 0.05; 100% = 0.03% Triton X-100; three independent experiments
Experimental: as §3

[13] = tested on: T. beigelii; type: cell-based, T. beigelii (KCTC 7707); conditions: 36 h
Source text: as §1, §2

[14] = tested on: C. tropicalis; test: C. tropicalis skin infection mouse model; type: in vivo, BALB/C female mice
Experimental: All animal experiments and procedures were performed with the approval of the Institutional Animal Care and Use Committee (IACUC) of Sunchon National University, Korea (SCNU IACUC-2019-10). BALB/C female mice (six weeks old) were obtained from Koatech Co. (Pyongtaek, Gyeonggido, Korea) and divided into three groups (n = 4): control, pseudin-2, and P2-LZ4 groups. The skin on the back of each mouse was shaved 1 h before infection, and the mice were anesthetized by inhalation of 5% (induction) and 2% (maintenance) isoflurane in pure oxygen. Mice were then subjected to subcutaneous infection with 100 µL C. tropicalis (10^7 cells/mL) by injection into the dorsum of each mouse. At 24 h after infection, 100 µL PBS, pseudin-2 (0.1 mg/mL), or P2-LZ4 (0.1 mg/mL) was injected into the same site. At four days after peptide injection, mice were euthanized by CO2 inhalation, and the infected skin tissues were excised, fixed in 4% paraformaldehyde, embedded in paraffin, stained with H&E, and observed by light microscopy.

[15] = tested on: Candida albicans, C. krusei, C. tropicalis, and Trichosporon beigelii; test: Antifungal microtiter plate assay (MIC), range over pathogenic yeasts; type: cell-based; conditions: neutral pH; range over four yeasts
Experimental: as §2

[16] = tested on: C. tropicalis cells; test: Mitochondrial superoxide, MitoSOX Red flow cytometry; type: cell-based; conditions: peptide at MIC for 8 h
Experimental: Mitochondrial SOX was measured using MitoSOX Red probe. C. tropicalis cells (2 × 10^4 spores/mL) were treated with samples at the appropriate MIC for 8 h and then stained with MitoSOX Red according to the manufacturer’s instructions. The stained cells were acquired by flow cytometry (Attune NxT Acoustic Focusing Cytometer; ThermoFisher Scientific Co., Eugene, OR, USA) at 561 nm by 10,000 total events.

[17] = 10 mM sodium phosphate buffer pH 7.2 with 20% culture medium, 28 °C, triplicate
[18] = acidic: 10 mM MES buffer pH 5.5 with 20% culture medium (value in parentheses), 28 °C, triplicate

Row | Compound | SYTOX Green fluorescence intensity [10] | leakage of calcein [12] [%] | MIC ([1]; pH 5.5) [µM] | MIC ([1]; pH 7.2) [µM] | MIC ([2]; pH 5.5) | MIC ([2]; pH 7.2) | MIC ([4]; pH 5.5) [µM] | MIC ([4]; pH 7.2) [µM] | MIC ([5]; pH 5.5) [µM] | MIC ([5]; pH 7.2) [µM] | MIC ([6]; pH 5.5) [µM] | MIC ([6]; pH 7.2) [µM] | MIC ([8]; pH 5.5) [µM] | MIC ([8]; pH 7.2) [µM] | MIC ([9]; pH 5.5) | MIC ([9]; pH 7.2) | MIC ([11]; pH 5.5) [µM] | MIC ([11]; pH 7.2) [µM] | MIC ([13]; pH 5.5) [µM] | MIC ([13]; pH 7.2) [µM] | also measured
1 | CC[C@H](C)[C@H](NC(=O)CN)C(=O)NCC(=O)N[C@@H](C)C(=O)N[C@H](C(=O)N[C@@H](CC(C)C)C(=O)N[C@@H](CCCCN)C(=O)N[C@H](C(=O)N[C@@H](CC(C)C)C(=O)N[C@H](C(=O)N[C@H](C(=O)NCC(=O)N[C@@H](CC(C)C)C(=O)N1CCC[C@H]1C(=O)N[C@@H](C)C(=O)N[C@@H](CC(C)C)C(=O)N[C@H](C(=O)N[C@@H](CO)C(=O)N[C@@H](Cc1c[nH]c2ccccc12)C(=O)N[C@H](C(=O)N[C@@H](CCCCN)C(=O)N[C@@H](CCCNC(=N)N)C(=O)N[C@@H](CCCCN)C(=O)N[C@@H](CCCNC(=N)N)C(=O)N[C@@H](CCC(N)=O)C(=O)N[C@@H](CCC(N)=O)C(N)=O)[C@@H](C)CC)[C@@H](C)CC)[C@@H](C)O)[C@@H](C)O)C(C)C)C(C)C [Melittin, reference compound] | gradual, concentration-dependent increases in fluorescence intensity | 84.1 | – | – | – | – | – | – | – | – | – | – | – | – | – | – | – | – | – | – | MIC [1, 17]: 64 µM (≈ 182 µg/mL); MIC [1, 18]: 32 µM (≈ 91.1 µg/mL); MIC [2, 17]: 32 (32) µM; MIC [2, 18]: 32 (32) µM; hemolytic effects (hemoglobin release, by visualization) [3]: severe hemolysis; MIC ([4]; 10 mM sodium phosphate buffer pH 7.2 with 20% culture medium, 28 °C, >90% reduction of proliferation, triplicate): 32 µM (≈ 91.1 µg/mL); MIC [4, 18]: 8 µM (≈ 22.8 µg/mL); MIC [5, 17]: 6 µM (≈ 17.1 µg/mL); MIC [5, 18]: 4 µM (≈ 11.4 µg/mL); MIC ([6]; 10 mM sodium phosphate buffer pH 7.2 with 20% culture medium, 28 °C, >90% reduction of germination, triplicate): 6 µM (≈ 17.1 µg/mL); MIC [6, 18]: 4 µM (≈ 11.4 µg/mL); calcein efflux [7]: significant dye leakage; MIC [8, 17]: 16 µM (≈ 45.5 µg/mL); MIC [8, 18]: 8 µM (≈ 22.8 µg/mL); MIC [9, 17]: 16 µM (≈ 45.5 µg/mL); MIC [9, 18]: 8 µM (≈ 22.8 µg/mL); MIC [11, 17]: 8 µM (≈ 22.8 µg/mL); MIC [11, 18]: 4 µM (≈ 11.4 µg/mL); MIC [13, 17]: 2 (2) µM; MIC [13, 18]: 2 (2) µM
2 | GLNALKKVAQGIHEAAKLINNHVQ-NH2 [P2-LZ4] | – | 80.5 | 16 | 2 | 32 (32) µM | 32 (32) µM | 8 | 4 | 16 | 32 | 16 | 32 | 1 | 2 | > 64 µM | 48 µM | 8 | 6 | 1 | 1.5 | histological evaluation of skin tissues (H&E) ([14]; 100 µL of 0.1 mg/mL peptide s.c. 24 h after infection, tissues taken four days after peptide injection): nearly identical to those of the PBS-treated mice; skin lesions (swelling and redness in the dorsal skin) ([14]; 100 µL of 0.1 mg/mL peptide s.c. 24 h after s.c. infection, monitored seven days, n = 4): no obvious skin lesions; MICs against pathogenic yeast cells [15]: 1.5 to 6 µM
3 | GLNALKKVKQGKHEAIKLINNHVQ-NH2 [P2-LZ5] | much lower than that in the presence of the other peptides | 33.8 | 16 | 6 | 64 (>64) µM | 64 (>64) µM | 64 | 32 | > 64 | 16 | > 64 | 16 | 16 | 8 | >64 (>64) µM | >64 (>64) µM | 16 | 48 | 32 | 8 | MitoSOX Red fluorescence (mitochondrial SOX) [16]: significantly increased
